Measured values published in patent US4914198A, “Novel substance UCY1003 and process for preparing the same” (priority 1985, dated 1990).
Converted amounts (≈) assume the structure as drawn.

What was measured:
[1] = tested on: male dd mice (number of writhes); assay: Analgesic activity: acetic acid-induced writhing in mice; format: in vivo; details: for Inhibition Ratio: i.p., 60 min before acetic acid, N = 4
Procedure: In this experiment, 4 male dd mice wieghing 20±1 g were used as one group for examination of analgesic activity. Sixty minutes after intraperitoneal administration of UCY1003 to each animal, 0.2 ml of a 0.7% acetic acid solution was intraperitoneally administered to the animal. Starting 10 minutes after the administration of acetic acid, the number of writhes occurred in 5 minutes was counted. Inhibition ratio in comparison with control group was calculated by the following equation. ED50 value was calculated in accordance with Litchfield and Wilcoxon. [formula] A: Average number of writhes of control group B: Average number of writhes of test group

[2] = Acute toxicity in mice; details: mouse, in vivo, ip; single intraperitoneal administration, 5 ddY mice, 14 days observation, Beherns Karber's method
Procedure: UCY1003 was intraperitoneally administered once to each animal of the test group consisting of 5 ddY mice. […] The LD50 was determined by Beherns Karber's method to be more than 200 mg/kg.

[3] = tested on: Saccharomyces cerevisiae C-203; assay: Agar dilution method (pH 7), MIC; format: cell-based; details: C203
Source text: (§1) Anti-bacterial activities of UCY1003 against various microorganisms measured by agar dilution method (pH 7) are shown in Table 3.

[4] = tested on: Salmonella typhosa ATCC 9992; assay: Agar dilution method (pH 7), MIC; format: cell-based; details: Salmonella enterica
Source text: as §1

[5] = tested on: Candida albicans ATCC 10231; assay: Agar dilution method (pH 7), MIC; format: cell-based; details: ATCC10231
Source text: as §1

[6] = tested on: Bacillus subtilis No. 10707; assay: Agar dilution method (pH 7), MIC; format: cell-based
Source text: as §1

[7] = tested on: Escherichia coli ATCC 26; assay: Agar dilution method (pH 7), MIC; format: cell-based; details: ATCC26
Source text: as §1

[8] = tested on: Staphylococcus aureus ATCC 6538P; assay: Agar dilution method (pH 7), MIC; format: cell-based; details: ATCC6538P
Source text: as §1

[9] = tested on: Klebsiella pneumoniae ATCC 10031; assay: Agar dilution method (pH 7), MIC; format: cell-based; details: ATCC10031
Source text: as §1

[10] = tested on: Male spontaneously hypertensive rats (SHR) of Okamoto-Aoki strain; assay: Hypotensive activity: systolic blood pressure of conscious SHR, tail artery, plethysmographic apparatus; format: in vivo, rat (SHR; details: for Blood Pressure after (90 min): 90 min after administration; for Blood Pressure after (90 min) / Blood Pressure Difference (before vs 90 min after administration) / Blood Pressure before: N = 3; for Blood Pressure after (90 min) / Blood Pressure before: mean ± S.E.; for Blood Pressure Difference (before vs 90 min after administration): a decrease; for Blood Pressure before: before administration (baseline)
Procedure: Male spontaneously hypertensive rats (SHR) of Okamoto-Aoki strain (body weight, 310-360 g) were used. Systolic blood pressure of conscious SHR was measured indirectly from the tail artery with a plethysmographic apparatus (Ueda Electric Works, USM-105R). Test compound UCY1003 was suspended in 0.3% sodium carboxymethylcellulose (CMC) solution and was intraperitoneally administered in a volume of 2 ml per kg of body weight.

C=C(CCC1(C)OC2O[C@@H]3C[C@H]1[C@]21CC[C@@H]2[C@@]4(C)CC[C@H](O)C[C@@H]4C[C@@H]4O[C@@]42[C@H]31)C(C)C (stereo partly drawn) [UCY1003]
Inhibition Ratio ([1]; 5 mg/kg): 17%
Inhibition Ratio ([1]; 10 mg/kg): 52%
Inhibition Ratio ([1]; 25 mg/kg): 52%
Inhibition Ratio ([1]; 50 mg/kg): 83%
Inhibition Ratio ([1]; 100 mg/kg): 95%
ED50 ([1]; Mus musculus, ip, calculated in accordance with Litchfield and Wilcoxon): 17 mg/kg
LD50 at 336 h [2]: > 200 mg/kg
MIC [3]: 2 µg/mL (≈ 4.52 µM)
MIC [4]: > 100 µg/mL
MIC [5]: > 100 µg/mL
MIC [6]: > 100 µg/mL
MIC [7]: > 100 µg/mL
MIC [8]: > 100 µg/mL
MIC [9]: > 100 µg/mL
Blood Pressure after (90 min) ([10]; 50 mg/kg, i.p.): 177 ± 14 mmHg
Blood Pressure Difference (before vs 90 min after administration) ([10]; 50 mg/kg, i.p.): 18 ± 15 mmHg
hypotension ([10]; 100 mg/kg, i.p.): caused hypotension
Blood Pressure after (90 min) ([10]; 100 mg/kg, i.p.): 142 ± 9 mmHg
Blood Pressure Difference (before vs 90 min after administration) ([10]; 100 mg/kg, i.p.): 45 ± 8 mmHg
Blood Pressure before ([10]; 50 mg/kg i.p. group): 195 ± 8 mmHg
Blood Pressure before ([10]; 100 mg/kg i.p. group): 187 ± 3 mmHg
